The results in this text go back to patent publication US7425580B2, “(Diaryl-methyl)-malononitriles and their use as estrogen receptor ligands” (Wyeth, priority 2004, dated 2008).

One data set relates to uterine wet weight. The data set can be described thus: Uterine wet weight increase in ovariectomized C57BL/6 mice. The format is in vivo. The conditions noted are these: EE 0.01 mg/kg/day, test compound 10 mg/kg/day, gavage, 5 weeks; for Uterine Wet Weight Increase, Fold Increase: compared to vehicle control. Here is the method: Ovariectomized C57BL/6 mice (16-20 g) (Taconic) were separated into groups of 8. After 5-7 days of recuperation, the mice were fed a chow diet or an atherogenic diet (15.75% fat, 1.25% cholesterol and 0.5% sodium cholate) (Purina diet #21539). EE or test compound was administered once daily by gavage in a methylcellulose/tween vehicle (0.1 ml per mouse) for 5 weeks. At the end of the experimental period, the liver was collected and uterine wet weight was recorded. To determine the ability of estrogens to regulate the development of diet-induced inflammation in the liver, gene expression changes resulting from the atherogenic diet were monitored. Ovariectomized C57BL/6 mice were fed either a chow or atherogenic diet and treated daily with EE (0.01 mg/kg) or test compound (10 mg/kg) (Table 3).

Data set [1] deals with NF-κB target genes (MHC invariant chain, VCAM-1, RANTES, TNF-α mRNA). The data set can be described thus: Liver inflammatory gene expression (real time RT-PCR) in ovariectomized C57BL/6 mice on atherogenic diet. The format is in vivo. The following applies: EE 0.01 mg/kg daily. The method, then: Ovariectomized C57BL/6 mice (16-20 g) (Taconic) were separated into groups of 8. After 5-7 days of recuperation, the mice were fed a chow diet or an atherogenic diet (15.75% fat, 1.25% cholesterol and 0.5% sodium cholate) (Purina diet #21539). EE or test compound was administered once daily by gavage in a methylcellulose/tween vehicle (0.1 ml per mouse) for 5 weeks. At the end of the experimental period, the liver was collected and uterine wet weight was recorded.
Liver total RNA was prepared by using Trizol reagent (BRL). Estrogen and compound regulation of NF-κB target genes were verified by real time RT-PCR using an ABI PRISM 7700 Sequence Detection System according to the manufacturer's protocol (Applied Biosystems). The data was analyzed using the Sequence Detector v1.7 software (Applied Biosystems) and normalized to GAPDH using the Applied Biosystems primer set.
To determine the ability of estrogens to regulate the development of diet-induced inflammation in the liver, gene expression changes resulting from the atherogenic diet were monitored. Ovariectomized C57BL/6 mice were fed either a chow or atherogenic diet and treated daily with EE (0.01 mg/kg) or test compound (10 mg/kg) (Table 3).
(Quantitative PCR measures a nucleic acid by following its amplification.)

A further data set has as its system IL-6. As to the kind of experiment: IL-6 expression (ELISA) in Ad5-wt-ER infected HAECT-1 cells (IL-1β stimulated). The format is cell-based, human. The conditions noted are these: for IL-6 Efficacy: relative to maximal inhibition observed with E2. The method, then:
(§1) T-175 flasks of 100% confluent HAECT-1 cells (immortalized human aortic endothelial cells) were washed with 8 ml of HBSS (HEPES buffered saline solution) and infected for four hours with 6 ml of a 1:10 dilution of Ad5-wt-hERα virus (an adenovirus transfection vector that mediates CMV promoter driven expression of human ERα) in phenol red free Endothelial Cell Basal medium (Clonetics, San Diego Calif., Catalog # CC-3129) containing 0.25% bovine serum albumin (EBM-BSA). After four hours, cells were washed with EBM-BSA and incubated overnight in the same medium. Following overnight incubation, cells were washed with EBM-BSA and infected for 2 hours with 6 ml of a 1:10 dilution of Ad5-3×(NFKκB).Luc virus (Adenovirus luciferase expression vector driven by 3 repeats of the MHC NFκβ site 5′ to the thymidine kinase promoter) in EBM-BSA. After two hours, cells were washed and incubated at 34° C. for 1 hour. Cells were then washed, trypsinized, counted and resuspended in 95% FBS/5% dimethylsulfoxide at a concentration of 4×10^6 cells/ml, frozen as 1 or 5 ml aliquots in cryo-vials and stored at −150° C. Control (no ER infection) cells were processed as above without Ad5-wt-hERα virus infection.
(§2) ERα infected HAECT-1 cells or control cells were thawed, diluted 42× in warm EBM-BSA, plated into 96-well plates at 0.1 ml/well and incubated for 4 h at 34° C. Test compounds were added to the cells as 2× stocks in EBM-BSA containing 2 ng/ml IL-1β (R&D Systems) and plates were returned to the incubator (34° C.). After 15-20 h, 100 μl aliquots of media were removed from the cells and assayed for IL-6 content using a BioSource human IL-6 ELISA Kit. Cells were subsequently washed with 300 μl of Dulbecco's phosphate buffered saline and lysed in 50 μl of Cell Culture Lysis Reagent (Promega). Luciferase was determined on a Wallac Victor^2 Luminometer (Gaithersburg, Md.) using 10 μl of lysate and mixing with 100 μl of Promega Luciferase Assay reagent. Creatine kinase was determined from the rate of increase in A340 following addition of 100 μl of CK assay reagent (Sigma, cat. No 47-10) to the remainder of the cell lysate.
(§3) For IC50 and EC50 calculations, mean IL-6, luciferase or CK values versus log10 of the compound concentration were fitted to a four parameter logistic equation. The IC50/EC50 value, ‘Hill slope’, upper and lower limits of the curve were iteratively estimated.

For a further data set, the system named is creatine kinase. The data set can be described thus: Creatine kinase expression in Ad5-wt-ER infected HAECT-1 cells. The format is cell-based, human. The conditions noted are these: for IC50: Homo sapiens, HAECT1, stimulation of CK; for CK Efficacy: relative to maximal stimulation observed with E2. Here is the method: as §1, §2, §3
Data set [2] concerns NF-κB. As to the kind of experiment: NF-κB luciferase reporter in non ER infected HAECT-1 cells. The format is cell-based, human. Here is the method: T-175 flasks of 100% confluent HAECT-1 cells (immortalized human aortic endothelial cells) were washed with 8 ml of HBSS (HEPES buffered saline solution) and infected for four hours with 6 ml of a 1:10 dilution of Ad5-wt-hERα virus (an adenovirus transfection vector that mediates CMV promoter driven expression of human ERα) in phenol red free Endothelial Cell Basal medium (Clonetics, San Diego Calif., Catalog # CC-3129) containing 0.25% bovine serum albumin (EBM-BSA). After four hours, cells were washed with EBM-BSA and incubated overnight in the same medium. […] Cells were then washed, trypsinized, counted and resuspended in 95% FBS/5% dimethylsulfoxide at a concentration of 4×10^6 cells/ml, frozen as 1 or 5 ml aliquots in cryo-vials and stored at −150° C. […]
ERα infected HAECT-1 cells or control cells were thawed, diluted 42× in warm EBM-BSA, plated into 96-well plates at 0.1 ml/well and incubated for 4 h at 34° C. […] Luciferase was determined on a Wallac Victor^2 Luminometer (Gaithersburg, Md.) using 10 μl of lysate and mixing with 100 μl of Promega Luciferase Assay reagent. Creatine kinase was determined from the rate of increase in A340 following addition of 100 μl of CK assay reagent (Sigma, cat. No 47-10) to the remainder of the cell lysate. […]
Background: A reporter such as luciferase makes a cellular process visible.

Data set [3] concerns NF-κB. The data set can be described thus: NF-κB luciferase reporter in Ad5-wt-ER infected HAECT-1 cells (IL-1β stimulated). The format is cell-based, human. The following applies: for Emax: relative to maximal inhibition observed with E2, read-out: NF-κB Efficacy. Here is the method: as §1, §2, §3
Where [4] appears, read: Ad5-wt-ER infected HAECT-1 cells.
[5] abbreviates: Homo sapiens, HAECT1, Ad5-wt-ER infected HAECT-1 cells.

As to `C#C[C@]1(O)CC[C@H]2[C@@H]3CCc4cc(O)ccc4[C@H]3CC[C@@]21C` [EE, 17α-ethinyl-17β-estradiol, reference compound], in the data set with uterine wet weight, the “Uterine Wet Weight Increase, Efficacy” value is reported as 100% and the “Uterine Wet Weight Increase, Fold Increase” value stood at 5.0. Moreover, in data set [1], the “Atherogenic diet induction of mRNA for MHC invariant chain, VCAM-1, RANTES and TNF-α in liver” value is “strongly suppressed”.

Broadly, the IC50 is the midpoint of a concentration-inhibition curve. A higher IC50 goes with a need for much substance. With `COc1ccccc1C(c1cccc2ccccc12)C(C#N)C#N` (stereo not drawn) [Ex. 1, 2-[(2-Methoxyphenyl)(1-naphthyl)methyl]malononitrile], in the data set on IL-6 (setting [4]), the “IL-6 Efficacy” value is 118%. For the same molecule, the IC50 with IL-6 (setting [5]) was 1220 nM; with creatine kinase, 8.7 nM. The “CK Efficacy” value in the data set with creatine kinase came out at 27%. For the same molecule, the “NF-κB IC50” value in the data set on NF-κB [2] is “inactive”.

With `COc1cccc(C(c2cccc3ccccc23)C(C#N)C#N)c1` (stereo not drawn) [Ex. 3, 2-[(3-Methoxyphenyl)(1-naphthyl)methyl]malononitrile], in the data set on NF-κB [3] (setting [5]), half-maximal inhibition (IC50) required 853 nM and the Emax stood at 138%. Also, the “IL-6 Efficacy” value in the data set with IL-6 (setting [4]) worked out at 92%. The molecule also displayed an IC50 in the data set with IL-6 (setting [5]) of 1040 nM.

`Cc1ccccc1C(c1cccc2ccccc12)C(C#N)C#N` (stereo not drawn) [Ex. 4, 2-[(2-Methylphenyl)(1-naphthyl)methyl]malononitrile]: the “IL-6 Efficacy” value in the data set on IL-6 (setting [4]) was determined as 127%. Moreover, the IC50 with IL-6 (setting [5]) came out at 1010 nM.

For the molecule `Cc1ccc(C(c2cccc3ccccc23)C(C#N)C#N)cc1` (stereo not drawn) [Ex. 5, 2-[(4-Methylphenyl)(1-naphthyl)methyl]malononitrile], in the data set with NF-κB [3] (setting [5]), the IC50 was determined as 1660 nM and the Emax amounted to 154%.

Turning to `COc1ccc(C(c2cccc3ccccc23)C(C#N)C#N)cc1` (stereo not drawn) [Ex. 6, 2-[(4-Methoxyphenyl)(1-naphthyl)methyl]malononitrile], in the data set with NF-κB [3] (setting [5]), the IC50 was 1640 nM and the Emax was 137%.

The term melting point denotes the temperature, or range, at which the solid turns liquid. Regarding `COc1ccccc1C(c1cccc2ccccc12)C(C)(C#N)C#N` (stereo not drawn) [Ex. 7, 2-[(2-Methoxyphenyl)(1-naphthyl)methyl]-2-methylmalononitrile], the melting point was in the range of 175 to 177 °C. For the same molecule, in the data set on uterine wet weight, the “Uterine Wet Weight Increase, Efficacy” value is 18% and the “Uterine Wet Weight Increase, Fold Increase” value is given as 2.2. Further, in the data set with NF-κB [3] (setting [4]), half-maximal inhibition (IC50) was put at 17.5 nM. Also, in the data set with NF-κB [3] (setting [5]), the IC50 is 9.9 nM and the Emax was determined as 98%. For the same molecule, the “IL-6 Efficacy” value in the data set with IL-6 (setting [4]) is 144%. The same molecule came in with an IC50 in the data set on IL-6 (setting [5]) of 24 nM. For the same molecule, in the data set with creatine kinase, the IC50 came out at 30.7 nM and the “CK Efficacy” value came to 28%. Also, in the data set with NF-κB [2], the “NF-κB IC50” value was “inactive”.

Take `N#CC(C#N)C(c1cccc2ccccc12)c1cccc2ccccc12` [Ex. 8, 2-[Di(1-naphthyl)methyl]malononitrile]: the melting point fell in the range of 179 to 181 °C. The IC50 with NF-κB [3] (setting [4]) stood at 581 nM. In the data set with NF-κB [3] (setting [5]), it took 768 nM to reach half-maximal inhibition (IC50) and the Emax is 176%. Also, in the data set with IL-6 (setting [4]), the “IL-6 Efficacy” value was 152%. Besides, half-maximal inhibition in the data set with IL-6 (setting [5]) (IC50) was put at 560 nM.

Turning to `C[C@]12CC[C@@H]3c4ccc(O)cc4CC[C@H]3[C@@H]1CC[C@@H]2O` [Example E2, 17β-estradiol, reference compound], in the data set with IL-6 (setting [4]), half-maximal inhibition (IC50) was put at 1.7 nM and the “IL-6 Efficacy” value is reported as 100%. Moreover, in the data set on creatine kinase, 5.8 nM corresponded to half-maximal inhibition (IC50) and the “CK Efficacy” value came out at 100%.
